According to US10745401B2, “Condensed lactam derivative” (Sumitomo Dainippon Pharma Co., Ltd., priority 2018, dated 2020):

Experiments:
human 5-HT1A receptor [1] = molecular target: T1, human 5-HT1A receptor (Homo sapiens (Human), UniProt P08908); experiment: Test 1: binding activity for human 5-HT1A receptor ([3H]8-OH-DPAT, CHO cell membrane fraction)
In short: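 Membranes incubated with [3H]8-OH-DPAT and compound for 60 min at room temperature, then filtered on polyethylenimine-coated glass-fibre plates and counted by liquid scintillation. IC50 from Hill analysis; Ki = IC50/(1+S/Kd), Kd from saturation binding on the same membranes.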

human D2 receptor = human D2 receptor (Homo sapiens (Human), UniProt P14416); experiment: Test 1: binding activity for human D2 receptor ([3H]Spiperone, CHO cell membrane fraction); settings: human D2 receptor, [3H]Spiperone
human D2 receptor, sequence (P14416 whole entry): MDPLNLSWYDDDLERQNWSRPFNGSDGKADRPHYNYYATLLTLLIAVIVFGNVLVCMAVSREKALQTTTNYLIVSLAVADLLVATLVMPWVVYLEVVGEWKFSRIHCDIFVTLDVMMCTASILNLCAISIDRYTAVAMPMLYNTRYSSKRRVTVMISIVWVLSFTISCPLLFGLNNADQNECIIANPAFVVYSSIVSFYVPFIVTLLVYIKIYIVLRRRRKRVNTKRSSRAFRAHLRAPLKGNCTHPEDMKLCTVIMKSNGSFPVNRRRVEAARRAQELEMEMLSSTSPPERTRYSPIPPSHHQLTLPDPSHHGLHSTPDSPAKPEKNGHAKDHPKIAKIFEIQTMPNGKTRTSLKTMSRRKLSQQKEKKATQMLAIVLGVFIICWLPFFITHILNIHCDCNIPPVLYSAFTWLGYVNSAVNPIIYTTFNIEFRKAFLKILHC
In short: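 Compound displacement of [3H]ketanserin at 5-HT2A or [3H]spiperone at D2 was measured in CHO membrane fractions after 60 min at room temperature, with filtration and scintillation counting. IC50 was converted to Ki by Cheng–Prusoff using ligand concentration and Kd from saturation binding.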

human 5-HT1A receptor [2] = molecular target: T1, human 5-HT1A receptor; experiment: Test 2: agonist activity for human 5-HT1A receptor ([35S]GTPγS binding); assay type: biochemical; settings: for EC50: [35S]GTPγS binding, concentration at which half the activity of Emax was obtained; for Emax at 10 µM: agonist activity in the presence of 10 μM of compound, relative to 100 μmol/L 5-HT
In short: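 [35S]GTPγS binding read-out: after 60 min at room temperature with test compound in GDP buffer, human 5-HT1A receptor CHO membranes were vacuum-filtered and retained radioactivity scintillation-counted. Agonist activity calculated by formula.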

[3] = Test 4: metabolic stability test in human hepatic microsome; assay type: in vitro ADME; settings: 0.1 mg/mL microsome, 0.1 μmol/L compound, 37° C., 30 minutes
In short: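 LC-MS quantified remaining parent after 30 min, 37° C, in pH 7.4 25 mmol/L phosphate containing 0.1 mg/mL human hepatic microsomes, 3.2 mmol/L NADPH and 0.1 μmol/L test compound. Value given as −LN(residual ratio)/30/0.1, mL/min/mg protein.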

hERG channel = hERG channel (Homo sapiens (Human), UniProt Q12809); experiment: Test 6-1: inhibitory activity for hERG channel (auto patch clamp, Qpatch); assay type: cell-based; settings: whole cell auto patch clamp, hERG-CHO cells; read-out: hERG inhibition IC50
hERG channel, sequence (Q12809 whole entry): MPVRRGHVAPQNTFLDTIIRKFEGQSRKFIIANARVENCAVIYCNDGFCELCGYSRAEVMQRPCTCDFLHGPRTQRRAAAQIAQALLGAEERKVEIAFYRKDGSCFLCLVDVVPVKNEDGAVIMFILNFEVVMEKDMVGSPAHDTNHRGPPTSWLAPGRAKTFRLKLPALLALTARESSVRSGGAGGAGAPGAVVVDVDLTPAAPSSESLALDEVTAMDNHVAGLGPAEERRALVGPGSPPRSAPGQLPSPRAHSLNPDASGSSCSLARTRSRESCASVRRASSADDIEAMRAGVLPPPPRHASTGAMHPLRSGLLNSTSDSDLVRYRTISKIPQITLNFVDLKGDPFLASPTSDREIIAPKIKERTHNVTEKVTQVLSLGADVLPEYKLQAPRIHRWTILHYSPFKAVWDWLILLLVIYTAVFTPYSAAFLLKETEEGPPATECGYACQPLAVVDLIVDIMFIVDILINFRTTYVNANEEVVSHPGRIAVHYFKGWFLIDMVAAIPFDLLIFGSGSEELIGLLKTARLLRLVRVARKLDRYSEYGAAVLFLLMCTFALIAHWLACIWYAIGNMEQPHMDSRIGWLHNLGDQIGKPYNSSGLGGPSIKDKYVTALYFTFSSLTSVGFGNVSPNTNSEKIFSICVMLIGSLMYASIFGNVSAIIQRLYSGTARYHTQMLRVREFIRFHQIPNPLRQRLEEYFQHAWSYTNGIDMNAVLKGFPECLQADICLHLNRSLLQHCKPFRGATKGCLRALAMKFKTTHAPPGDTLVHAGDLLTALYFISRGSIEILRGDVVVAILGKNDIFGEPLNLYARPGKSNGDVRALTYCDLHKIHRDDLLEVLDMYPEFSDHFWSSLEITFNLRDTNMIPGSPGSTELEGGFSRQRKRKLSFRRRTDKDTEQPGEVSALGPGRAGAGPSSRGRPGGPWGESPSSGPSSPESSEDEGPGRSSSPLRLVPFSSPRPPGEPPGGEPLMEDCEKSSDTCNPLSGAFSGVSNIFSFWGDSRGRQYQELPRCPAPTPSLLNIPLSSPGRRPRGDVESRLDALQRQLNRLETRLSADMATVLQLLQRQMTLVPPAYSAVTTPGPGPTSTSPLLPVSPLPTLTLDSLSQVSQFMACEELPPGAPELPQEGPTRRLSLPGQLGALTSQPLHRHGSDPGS
In short: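 Whole-cell patch clamp on an automated system using CHO cells stably expressing human hERG (IKr); 15 s pulse interval. Four increasing compound concentrations applied cumulatively; mean peak tail current from last 3 stimulations per concentration used. IC50 from inhibition versus pre-compound current, fitted by Hill equation.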

T1 sequence (P08908 whole entry): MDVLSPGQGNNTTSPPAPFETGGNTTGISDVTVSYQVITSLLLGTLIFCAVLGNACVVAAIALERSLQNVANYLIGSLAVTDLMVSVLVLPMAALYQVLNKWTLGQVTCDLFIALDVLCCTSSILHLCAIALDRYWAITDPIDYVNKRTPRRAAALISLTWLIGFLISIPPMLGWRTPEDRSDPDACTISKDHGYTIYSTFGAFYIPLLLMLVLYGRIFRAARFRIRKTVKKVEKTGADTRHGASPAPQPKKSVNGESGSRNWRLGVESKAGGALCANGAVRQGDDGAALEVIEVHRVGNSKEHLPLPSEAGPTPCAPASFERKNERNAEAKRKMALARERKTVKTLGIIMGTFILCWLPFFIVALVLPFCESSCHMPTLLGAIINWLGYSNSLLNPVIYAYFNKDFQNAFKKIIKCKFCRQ

| SMILES | Ki (human 5-HT1A receptor [1]) | Ki (human D2 receptor) | EC50 (human 5-HT1A receptor [2]) | Emax at 10 µM (human 5-HT1A receptor [2]) | Metabolic stability in human hepatic microsome [3] | IC50 (hERG channel) |
| --- | --- | --- | --- | --- | --- | --- |
| Cn1cnc2c1C(=O)N(CCN1CCN(c3nsc4ccccc34)CC1)CCC2 [Example 55] | 13.6 nM | 697 nM | 4.3 nM | 50% | 0.161 mL/min/mg protein | > 10000 nM |
| Cn1ncc2c1CCN(CCN1CCN(c3nsc4ccccc34)CC1)C2=O [Example 63] | 6.5 nM | 791 nM | 16 nM | 73% | <0.01 mL/min/mg protein | 7800 nM |
| Cn1ncc2c1C(=O)N(CCN1CCC(c3noc4ccccc34)CC1)CCC2 [Example 155] | 14 nM | 114 nM | 74.2 nM | 63% | 0.121 mL/min/mg protein | 700 nM |
| Cc1ncc2c(n1)CCN(CCN1CCN(c3nsc4ccccc34)CC1)C2=O [Example 90] | 6.77 nM | 1070 nM | 57.7 nM | 65% | 0.070 mL/min/mg protein | > 10000 nM |
| Cc1nc(C)c2c(n1)CCN(CCN1CCC(c3noc4ccccc34)CC1)C2=O [Example 139] | 20.3 nM | 635 nM | 72.7 nM | 48% | <0.05 mL/min/mg protein | 3800 nM |
| O=C1c2nc(F)ccc2CCN1CCN1CCC(c2noc3ccccc23)CC1 [Example 188, 7-{2-[4-(1,2-Benzoisoxazol-3-yl)piperidin-1-yl]ethyl}-2-fluoro-6,7-dihydro-1,7-naphthyridin-8(5H)-one] | 7.85 nM | 703 nM | 82.6 nM | 53% | <0.05 mL/min/mg protein | 1900 nM |
| O=C1c2sccc2CCN1CCN1CCC(c2noc3ccccc23)CC1 [Example 126] | 15.9 nM | 93 nM | 67.2 nM | 60% | 0.135 mL/min/mg protein | < 300 nM |
| Cn1cnc2c1C(=O)N(CCN1CCC(c3noc4ccccc34)CC1)CCC2 [Example 134] | 65.3 nM | 310 nM | 221 nM | 41% | <0.05 mL/min/mg protein | 3500 nM |
| O=C1c2[nH]ncc2CCN1CCN1CCC(c2noc3ccccc23)CC1 [Example 98, 6-{2-[4-(1,2-Benzoisoxazol-3-yl)piperidin-1-yl]ethyl}-1,4,5,6-tetrahydro-7H-pyrazolo[3,4-c]pyridin-7-one] | 11.6 nM | 312 nM | 755 nM | 43% | 0.013 mL/min/mg protein | 1100 nM |
| O=C1c2c(Br)n[nH]c2CCN1CCN1CCC(c2noc3ccccc23)CC1 [Example 192, 5-{2-[4-(1,2-Benzoisoxazol-3-yl)piperidin-1-yl]ethyl}-3-bromo-1,5,6,7-tetrahydro-4H-pyrazolo[4,3-c]pyridin-4-one] | 200 nM | 219 nM | 7670 nM | 11% | <0.05 mL/min/mg protein | 700 nM |
| Cc1noc2ccn(CCN3CCC(c4noc5ccccc45)CC3)c(=O)c12 [Example 132] | 16 nM | 750 nM | 74.5 nM | 59% | 0.148 mL/min/mg protein | 700 nM |
| O=C1c2ncccc2CCN1CCN1CCN(c2nsc3cc(F)ccc23)CC1 [Example 27] | 6.04 nM | 230 nM | 55.4 nM | 58% | 0.048 mL/min/mg protein | 1300 nM |
| O=C1c2occc2CCN1CCN1CCC(c2noc3ccccc23)CC1 [Example 127] | 35.7 nM | 203 nM | 56.9 nM | 48% | <0.05 mL/min/mg protein | 600 nM |

More lines, in order of falling Ki (human 5-HT1A receptor [1]), values ahead:

| Ki (human 5-HT1A receptor [1]) | Ki (human D2 receptor) | EC50 (human 5-HT1A receptor [2]) | Emax at 10 µM (human 5-HT1A receptor [2]) | Metabolic stability in human hepatic microsome [3] | SMILES | IC50 (hERG channel) |
| --- | --- | --- | --- | --- | --- | --- |
| 6 nM | 194 nM | 14 nM | 74% | 0.101 mL/min/mg protein | Cc1nn(C)c2c1C(=O)N(CCN1CCN(c3nsc4ccccc34)CC1)CC2 [Example 105, 5-{2-[4-(1,2-Benzoisothiazol-3-yl)piperazin-1-yl]ethyl}-1,3-dimethyl-1,5,6,7-tetrahydro-4H-pyrazolo[4,3-c]pyridin-4-one] | 7900 nM |
| 2.4 nM | 766 nM | 11 nM | 67% | 0.118 mL/min/mg protein | CCn1cc2c(n1)CCN(CCN1CCN(c3nsc4ccccc34)CC1)C2=O [Example 163] | 1400 nM |
| 2.39 nM | 210 nM | 7.13 nM | 56% | 0.174 mL/min/mg protein | O=C1c2cn(C3CC3)nc2CCN1CCN1CCN(c2nsc3ccccc23)CC1 [Example 75] | 1200 nM |
| 2.19 nM | 119 nM | 23.5 nM | 57% | 0.100 mL/min/mg protein | Cn1cc2c(n1)CCCN(CCN1CCN(c3nsc4ccccc34)CC1)C2=O [Example 42] | 2400 nM |
| 1.7 nM | 134 nM | 9.8 nM | 63% | 0.056 mL/min/mg protein | Cn1ccc2c1CCN(CCN1CCN(c3nsc4ccccc34)CC1)C2=O [Example 61] | > 10000 nM |
| 1.63 nM | 804 nM | 38.4 nM | 74% | 0.244 mL/min/mg protein | COc1c2c(nn1C)CCN(CCN1CCN(c3nsc4ccccc34)CC1)C2=O [Example 106, 5-{2-[4-(1,2-Benzoisothiazol-3-yl)piperazin-1-yl]ethyl}-3-methoxy-2-methyl-2,5,6,7-tetrahydro-4H-pyrazolo[4,3-c]pyridin-4-one] | 4800 nM |
| 0.77 nM | 1890 nM | 4.72 nM | 52% | 0.091 mL/min/mg protein | COc1cc2c(cn1)C(=O)N(CCN1CCN(c3noc4ccccc34)CC1)CC2 [Example 20] | 5400 nM |
| 0.75 nM | 690 nM | 6.7 nM | 68% | 0.378 mL/min/mg protein | COc1cc2c(cn1)CCN(CCN1CCN(c3nsc4ccccc34)CC1)C2=O [Example 19] | 5200 nM |
| 0.68 nM | 143 nM | 64.5 nM | 42% | 0.063 mL/min/mg protein | Cn1ncc2c1CCC(CCN1CCN(c3nsc4ccccc34)CC1)C2=O (centres unmarked) [Example 29] | 2300 nM |
| 0.51 nM | 1560 nM | 7.32 nM | 57% | 0.055 mL/min/mg protein | CC1CN(CCN2CCC(c3noc4ccccc34)CC2)C(=O)c2ncccc21 (centres unmarked) [Example 15] | 1600 nM |
| 0.25 nM | 852 nM | 1.1 nM | 74% | 0.194 mL/min/mg protein | N#Cc1cc2c(cn1)C(=O)N(CCN1CCN(c3nsc4ccccc34)CC1)CC2 [Example 102, 7-{2-[4-(1,2-Benzoisothiazol-3-yl)piperazin-1-yl]ethyl}-8-oxo-5,6,7,8-tetrahydro-2,7-naphthyridine-3-carbonitrile] | 1000 nM |
| 0.24 nM | 605 nM | 1.3 nM | 78% | 0.119 mL/min/mg protein | CC1CN(CCN2CCN(c3nsc4ccccc34)CC2)C(=O)c2cnn(C)c21 (centres unmarked) [Example 77] | 4600 nM |
| 0.19 nM | 239 nM | 6.21 nM | 63% | 0.409 mL/min/mg protein | CC1CN(CCN2CCN(c3nsc4ccccc34)CC2)C(=O)c2ccn(C)c21 (centres unmarked) [Example 79] | 4500 nM |
| 0.14 nM | 71 nM | 0.84 nM | 60% | 0.413 mL/min/mg protein | Cc1cc2c(n1C)CCCN(CCN1CCN(c3nsc4ccccc34)CC1)C2=O [Example 167] | 1800 nM |
| 0.12 nM | 94 nM | – | 76% | 0.458 mL/min/mg protein | Cc1nccc2c1C(=O)N(CCN1CCC(c3noc4ccccc34)CC1)CC2 [Example 87] | 500 nM |
